Where two headings read alike, the source gives them in different places. Where a SMILES comes first, the peptide text is derived from it. [ ]: non-standard residue; d: D form. The star is where a group is joined. FITC = O=C1OC2(c3ccc(O)cc3Oc3cc(O)ccc32)c2ccc(NC(=S)*)cc21; Benzoyl(2,3-diOH) = O=C(c1cccc(O)c1O)*; Nicotinoyl(2-OH) = O=C(c1cccnc1O)*; Nspe = C[C@H](NCC(=O)O)c1ccccc1; X1 = O=C([C@H](O)c1ccccc1)*; Dap = NC[C@H](N)C(=O)O; Ahx = NCCCCCC(=O)O
Experiments:
Assay type in all cases: binding
[1] = biological target: T1, Fyn SH3 domain (Fyn SH3-GST fusion protein) (Homo sapiens, UniProt P06241); test: Determination of Kd values by equilibrium dialysis (fluorescence), Fyn SH3 domain; details: for Kd: Fyn SH3 domain; for Selectivity among Src family SH3 domains (in words): Fyn versus other Src kinase family SH3 domains; for Enhancement in Fyn SH3 affinity relative to parent peptide 9: ratio of KD values versus acetylated derivative 9
T1 construct: The GST-SH3 fusion proteins, Fyn (85-139) and Lck (54-120); purchased Santa Cruz Biotechnology
T1 sequence (P06241 85-139): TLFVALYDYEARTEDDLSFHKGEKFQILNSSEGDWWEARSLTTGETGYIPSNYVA
Method: Determination of Kd Values. […] Therefore, the KD values for the SH3 complexes of these species were determined via equilibrium dialysis. All samples were prepared in buffer containing TBS and 1 mM DTT at pH 7.5. Slide-A-Lyzer dialysis slide cassette (0.1-0.5 mL capacity) was employed and contained 30 nM or 500 nM Fyn SH3-GST fusion proteins. The cassettes (400 μL final volume) were placed in a beaker containing a volume of buffer solution (TBS and 1 mM DTT at pH 7.5) that was at least 400-fold greater than that of the sample volume in the dialysis cassette. As a consequence, concentrations of non-SH3-bound peptide were held constant in the dialysis slide cassette over the course of the experiment. Equilibrium dialysis experiments were performed over a period of at least 16 hr and maintained at 4°C. Differences in the fluorescence between the solution in the slide cassette and that in the beaker were measured. The excitation wavelength employed for the peptides were 328 nm. Emission was monitored at 378 nm. The Kd values were calculated from the following equation for fluorescent peptides 8a, 11a, 14 and 7, where [E]t=total enzyme concentration; [E·L]=enzyme-peptide complex; [L]=free peptide concentration.
For non-fluorescent peptide 9, the following equation was used for the determination of Kd′:
Where Kd=the dissociation constant of competition fluorescent peptide, [L′]=total lion-fluorescent peptide concentration, [L]=total competitive fluorescent peptide concentration, [E]t=total SH3 domain concentration; [E·L]=enzyme-peptide (fluorescent competitive peptide) complex concentration.

Src SH3 domain = Src SH3 domain (Homo sapiens, UniProt P12931); test: Determination of Kd values by equilibrium dialysis (fluorescence), Src SH3 domain; details: read-out: Dissociation constant (KD), Src
Yes SH3 domain = Yes SH3 domain (Homo sapiens, UniProt P07947); test: Determination of Kd values by equilibrium dialysis (fluorescence), Yes SH3 domain; details: read-out: Dissociation constant (KD), Yes
Yes SH3 domain, sequence (P07947 91-152 limits assumed): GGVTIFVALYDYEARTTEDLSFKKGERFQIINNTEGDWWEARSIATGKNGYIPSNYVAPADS

[2] = biological target: T2, Fyn SH3-GST fusion protein (Homo sapiens, UniProt P06241); test: Competition ELISA against microwell-bound biotinylated peptoid 6; details: competition with biotinylated peptoid 6, read-out: IC50 (relative affinity) in ELISA assay
T2 construct: The GST-SH3 fusion proteins, Fyn (85-139) and Lck (54-120); purchased Santa Cruz Biotechnology
T2 sequence (P06241 85-139): as the sequence (P06241 85-139) above
Method: We employed Arg-Ala-Leu-Pro-Pro-Leu-Pro as the starting point for Fyn SH3 ligand optimization, a sequence that is consistent with most known SH3 domain-binding elements. We initially introduced diversity elements on the N-terminus of this peptide to furnish Library I (FIG. 2). The 720 individual members of this library were subsequently assessed for SH3 binding potency via an ELISA-based screen. The latter was performed in parallel using streptavidin-coated 96 well plates. A biotinylated-peptide SH3-directed ligand was appended to the individual wells and a GST-SH3 domain fusion protein was subsequently introduced. Competition between members of the library and the microwell-bound biotinylated peptide ligand determined the extent to which the GST-SH3 protein was retained by the individual wells after washing. The latter was quantified using an anti-GST-peroxidase fusion construct. The assay is dependent upon a strong binding interaction between the GST-SH3 domain and the biotinylated peptide ligand associated with the streptavidin-coated well. […]
Screening of the Peptide/Nonpeptide Conjugate Library. […] 100 μL of 1M sulfuric acid solution was introduced to stop the peroxidase reaction and absorbance was measured at 450 nm with a plate reader. […]

Hck SH3 domain = biological target: T3, Hck SH3 domain (Homo sapiens, UniProt P08631); test: Determination of Kd values by equilibrium dialysis (fluorescence), Hck SH3 domain; details: read-out: Dissociation constant (KD), Hck
T3 construct: particularly with respect to the SH3 domains from Lck and Hck
T3 sequence (P08631 78-138 limits assumed): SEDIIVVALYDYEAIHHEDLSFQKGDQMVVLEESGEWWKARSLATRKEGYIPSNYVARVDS

Lck SH3 domain = biological target: T4, Lck SH3 domain (Homo sapiens, UniProt P06239); test: Determination of Kd values by equilibrium dialysis (fluorescence), Lck SH3 domain; details: read-out: Dissociation constant (KD), Lck
T4 construct: The GST-SH3 fusion proteins, Fyn (85-139) and Lck (54-120); GST; purchased Santa Cruz Biotechnology
T4 sequence (P06239 54-120): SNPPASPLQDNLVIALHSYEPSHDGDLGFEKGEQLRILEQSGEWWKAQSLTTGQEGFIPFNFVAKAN

[3] = equilibrium dialysis, 4°C, pH 7.5, read-out: Dissociation constant (KD), Fyn

SMILES	Kd ([1]; values in nM, read-out: KD for the Fyn SH3 domain) [nM]	Selectivity among Src family SH3 domains (in words) [1]	Kd (Src SH3 domain) [nM]	Kd (Yes SH3 domain) [nM]	IC50 [2] [nM]	Kd (Hck SH3 domain) [nM]	Kd (Lck SH3 domain) [nM]	Kd [1, 3] [nM]	Enhancement in Fyn SH3 affinity relative to parent peptide 9 [1] [fold]	Selective affinity for Fyn versus SH3 domains from other Src kinase family members ([1]; Fyn versus Lck, Src, Yes, Hck SH3 domains) [fold]
CC(C)C[C@H](NC(=O)[C@@H]1CCCN1C(=O)[C@@H]1CCCN1C(=O)[C@H](C)NC(=O)[C@H](Cc1ccc(O)cc1)NC(=O)CCCCCNC(=O)CCCCCNC(=S)Nc1ccc2c(c1)C(=O)OC21c2ccc(O)cc2Oc2cc(O)ccc21)C(=O)N(CC(=O)N1CCC[C@H]1C(=O)N[C@@H](CCCNC(=N)N)C(=O)N[C@@H](CC(N)=O)C(=O)N[C@@H](CCCNC(=N)N)C(=O)N1CCC[C@H]1C(=O)N[C@@H](CCCNC(=N)N)C(=O)N[C@@H](C)C(N)=O)[C@@H](C)c1ccccc1 [Ligand 7] ({FITC-Ahx-Ahx}-YAPPL[Nspe]PRNRPRA-NH2)	230 ± 30	little selectivity versus other members of the Src kinase family	–	–	–	–	–	–	–	–
CC(C)C[C@H](NC(=O)[C@@H]1CCCN1C(=O)[C@@H]1CCCN1C(=O)[C@H](CC(C)C)NC(=O)[C@H](C)NC(=O)[C@H](CCCNC(=N)N)NC(=O)c1cccnc1O)C(=O)N1CCC[C@H]1C(N)=O [Ligand 8a] ({Nicotinoyl(2-OH)}-RALPPLP-NH2)	–	some selectivity in favor of Fyn	2500 ± 200	2700 ± 300	15000	5100 ± 700	5300 ± 400	1200 ± 200	~15	–
CC(C)C[C@H](NC(=O)[C@@H]1CCCN1C(=O)[C@@H]1CCCN1C(=O)[C@H](CC(C)C)NC(=O)[C@H](C)NC(=O)[C@H](CCCNC(=N)N)NC(=O)c1cccnc1O)C(=O)N1CCC[C@H]1C(=O)N[C@@H](CNC(=O)c1cccc(O)c1O)C(N)=O [Ligand 11a] ({Nicotinoyl(2-OH)}-RALPPLP[Dap](Benzoyl(2,3-diOH))-NH2)	–	slight improvement in selectivity for the Fyn SH3 domain relative to Lck and Hck	370 ± 50	380 ± 140	–	620 ± 70	590 ± 80	110 ± 30	> 100	–
CC(C)C[C@H](NC(=O)[C@@H]1CCCN1C(=O)[C@@H]1CCCN1C(=O)[C@H](CC(C)C)NC(=O)[C@H](CNC(=O)[C@H](O)c1ccccc1)NC(=O)[C@H](CCCNC(=N)N)NC(=O)c1cccnc1O)C(=O)N1CCC[C@H]1C(=O)N[C@@H](CNC(=O)c1cccc(O)c1O)C(N)=O [Ligand 14] ({Nicotinoyl(2-OH)}-R[Dap](X1)LPPLP[Dap](Benzoyl(2,3-diOH))-NH2)	–	–	230 ± 40	190 ± 20	–	260 ± 30	270 ± 30	25 ± 5	–	10

Source: patent publication US20100035823A1, “LIGANDS OF SH3 DOMAINS” (ALBERT EINSTEIN COLLEGE OF MEDICINE OF YESHIVA UNIVERSITY, priority 2005, published 2010)
